Measurements taken from PMC6161601 (Journal of Enzyme Inhibition and Medicinal Chemistry, 2018).
Values joined by “and” are separate entries in the source; they are usually repeats but may differ in a detail not shown here. Equal values may be shown once. “Also recorded” adds a separate entry of the source. Read-outs that look alike come from different tables or passages of the source.

Key:
[1] = target: T1, human plasma butyrylcholinesterase (BuChE) (Homo sapiens, UniProt P06276); assay: Kinetic parameters and type of BuChE inhibition (Hanes–Woolf); assay type: biochemical; details: for Vmax(i) BuChE: mean ± SD; for vmax BuChE, individual experiments B1–B3: inhibitor at 1/3 of IC50; for vmax BuChE, individual experiments C1–C3: inhibitor at IC50
T1 construct: Plasma for determination of BuChE activity was obtained by centrifuging the blood; from tissue; host or cells: plasma of healthy human donors
Experimental: (§1) The absorbance was recorded at λ = 436 nm using a CECIL 2021 spectrophotometer (CECIL Instruments Limited, Cambridge, UK) with a thermostatic water flow (temperature 37° C).
(§2) AChE Selectivity Index (SI) was calculated with the aid of the following formula: SI = IC50 of BChE/IC50 of AChE. In turn BuChE SI was defined as IC50 of AChE/IC50 of BChE. Linear regression (Hanes–Woolf plots) were used to estimate the maximal velocity (Vmax) and the Michaelis constant (Km).
(§3) To establish the type of inhibition, additional experiments were conducted with various concentrations of substrates (ATC, BTC), and the kinetic parameters of the enzymatic reactions were obtained using Hanes–Woolf equation, which is a graphical representation of enzyme kinetics in which the ratio of the initial substrate concentration [S] to the reaction velocity v is plotted against [S]. […]

[2] = target: T2, human erythrocyte acetylcholinesterase (AChE) (Homo sapiens, UniProt P22303); assay: biochemical; details: for SI AChE: IC50 BChE/IC50 AChE; for IC50: human erythrocyte AChE, mean ± SD of three independent experiments
T2 construct: from tissue; host or cells: haemolysed erythrocytes of healthy human donors
Experimental: (§4) Blood samples were obtained from healthy donors from the Voievodal Specialized Hospital in Łódź, Poland (Wojewódzki Specjalistyczny Szpital im. Dr W. Biegańskiego w Łodzi). The blood was collected into vacuum tubes containing sodium citrate. Erythrocytes were separated from plasma by centrifugation (3000 × g, 10 min, 20 °C) with a Micro 22 R centrifuge (Hettich ZENTRIFUGEN, Tuttlingen, Germany) and washed three times with 0.9% saline. Afterwards, red cells were haemolysed by freezing and stored at a temperature of –30 °C; before each experiment, they were restored at 37° C for 15 min and used to determine AChE activity. […] The studies on the biological material were approved by the Bioethics Committee of the Medical University of Lodz (RNN/27/18/KE).
(§5) The activity of both cholinesterases (AChE and BuChE) were conducted using a spectrophotometric method developed by Ellman with previously described modifications[25]^,[30]. […] 400-fold diluted solution of haemolysed erythrocytes or diluted plasma (200 times) was incubated for 15 min (37° C) with DTNB and tested compound at an appropriate concentration, and the reaction was started by addition of substrate (ATC or BTC). The final volume of a sample was 500 µL.
as §2

[3] = target: T1, human plasma butyrylcholinesterase (BuChE); assay: biochemical; details: for IC50: human plasma BuChE, mean ± SD of three independent experiments; for SI BuChE: IC50(AChE)/IC50(BChE)
Experimental: as §4, §5, §2

[4] = target: T2, human erythrocyte acetylcholinesterase (AChE); assay: Kinetic parameters and type of AChE inhibition (Hanes–Woolf); assay type: biochemical; details: for Vmax(i) AChE: mean ± SD; for vmax AChE, individual experiments B1–B3: inhibitor at 1/3 of IC50; for vmax AChE, individual experiments C1–C3: inhibitor at IC50
Experimental: as §1, §2, §3

BuChE [5] = target: T3, BuChE (Homo sapiens, UniProt P06276); details: BTC 0.75 mmol/L; previously published; cited from earlier work
T3 construct: Plasma for determination of BuChE activity was obtained by centrifuging the blood; from tissue; host or cells: plasma of healthy human donors

BuChE [6] = target: T3, BuChE; assay: BuChE inhibition with excess of substrate (BTC); assay type: biochemical; details: BTC 2.5 mmol/L
[7] = target: T2, human erythrocyte acetylcholinesterase (AChE); details: previous study; cited from earlier work
AChE = target: T4, AChE (Homo sapiens, UniProt P22303); assay type: biochemical
T4 construct: 400-fold diluted solution of haemolysed erythrocytes or diluted plasma (200 times) was incubated; from tissue; host or cells: haemolysed erythrocytes of healthy human donors

Aβ42 peptide = target: T5, Aβ42 peptide (Homo sapiens, UniProt P05067); assay: Beta-amyloid (Aβ 1–42) aggregation, SensoLyte ThT kit; assay type: biochemical
T5 construct: Beta-amyloid (Aβ 1–42) aggregation studies were conducted using SensoLyte ThT Aβ42 Aggregation kit; purchased AnaSpec, Inc, Fremont, CA
Experimental: Beta-amyloid (Aβ 1–42) aggregation studies were conducted using SensoLyte ThT Aβ42 Aggregation kit (AnaSpec, Inc, Fremont, CA). Aβ42 peptide was dissolved in cold (4 °C) assay buffer and left to hydrate for a few minutes. The solution was spined at 10,000 rpm for 5 min at 4 °C to centrifuge out any precipitated material. […] The final volume of the test samples was 100 µL. Simultaneously, the positive control and negative control containing morin at the final concentration of 100 µmol/L were established. […] The measurements of fluorescence intensity expressed as relative fluorescence units (RFU) were taken for 90 min with 5 min intervals. The fluorescence intensity measured for positive control equals 100% of Aβ aggregation and was used for estimation of inhibition properties of tested biguanides.
Statistical analysis of data obtained in Aβ aggregation assay was conducted with a commercially available package (GraphPad Prism 5, La Jolla, CA). The results were expressed as the mean ± standard deviation (SD) of measurements conducted in triplicates or quadruplicates. One or two-way ANOVA and subsequent post hoc tests were used for intergroup comparisons. The results were considered significant at p values lower than 0.05.

T3 sequence (P06276 29-602): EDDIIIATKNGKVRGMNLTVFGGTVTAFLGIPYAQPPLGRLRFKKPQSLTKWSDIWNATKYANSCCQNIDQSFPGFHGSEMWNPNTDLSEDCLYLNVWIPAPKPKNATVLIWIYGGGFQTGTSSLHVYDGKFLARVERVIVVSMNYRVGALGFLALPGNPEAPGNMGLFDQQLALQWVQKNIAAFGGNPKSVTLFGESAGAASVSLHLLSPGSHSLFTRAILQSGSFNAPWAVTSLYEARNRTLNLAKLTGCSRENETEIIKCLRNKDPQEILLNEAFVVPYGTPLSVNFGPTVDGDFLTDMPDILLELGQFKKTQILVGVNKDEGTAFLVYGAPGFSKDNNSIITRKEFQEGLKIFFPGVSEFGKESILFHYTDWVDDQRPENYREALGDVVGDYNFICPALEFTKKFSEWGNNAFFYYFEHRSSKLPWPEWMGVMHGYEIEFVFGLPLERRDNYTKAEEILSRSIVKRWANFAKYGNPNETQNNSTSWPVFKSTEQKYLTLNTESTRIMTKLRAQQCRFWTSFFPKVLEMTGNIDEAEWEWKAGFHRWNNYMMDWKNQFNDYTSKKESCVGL
T1 sequence (P06276 29-602): as above
T5 sequence (P05067 672-713): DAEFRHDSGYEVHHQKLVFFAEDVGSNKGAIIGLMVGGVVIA
T2 sequence (P22303 other isoform, or with tags, fused parts or gaps): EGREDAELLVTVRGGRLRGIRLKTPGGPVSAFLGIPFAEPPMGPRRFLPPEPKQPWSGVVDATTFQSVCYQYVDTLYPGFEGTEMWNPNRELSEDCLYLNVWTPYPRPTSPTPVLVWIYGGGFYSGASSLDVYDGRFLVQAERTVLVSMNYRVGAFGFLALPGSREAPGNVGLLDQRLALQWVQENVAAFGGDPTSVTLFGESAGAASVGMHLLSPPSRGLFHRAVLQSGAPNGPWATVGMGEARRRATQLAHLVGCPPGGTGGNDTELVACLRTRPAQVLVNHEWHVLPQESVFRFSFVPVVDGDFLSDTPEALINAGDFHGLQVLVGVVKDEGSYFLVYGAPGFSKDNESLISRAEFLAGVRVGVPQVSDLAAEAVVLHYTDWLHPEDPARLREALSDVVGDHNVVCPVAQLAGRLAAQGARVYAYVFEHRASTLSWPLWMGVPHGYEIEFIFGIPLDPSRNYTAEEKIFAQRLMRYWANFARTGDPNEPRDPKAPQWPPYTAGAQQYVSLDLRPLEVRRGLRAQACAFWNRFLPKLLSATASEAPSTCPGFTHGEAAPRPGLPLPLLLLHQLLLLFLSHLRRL
T4 sequence (P22303 other isoform, or with tags, fused parts or gaps): as above

| Compound | I: type of inhibition, BuChE [1] | type of BuChE inhibition [1] | vmax BuChE, mean ± SD ([1]; B: inhibitor at 1/3 of IC50) [mA/min] | Vmax(i) BuChE ([1]; B: inhibitor at 1/3 of IC50) [A/min] | vmax BuChE, mean ± SD ([1]; C: inhibitor at IC50) [mA/min] | Vmax(i) BuChE ([1]; C: inhibitor at IC50) [A/min] | vmax BuChE, individual experiments B1–B3 [1] | vmax BuChE, individual experiments C1–C3 [1] | SI AChE [2] | IC50 [2] [µM] | IC50 [3] [µM] | type of AChE inhibition [4] | vmax AChE, mean ± SD ([4]; B: inhibitor at 1/3 of IC50) [mA/min] | Vmax(i) AChE ([4]; B: inhibitor at 1/3 of IC50) [A/min] | vmax AChE, mean ± SD ([4]; C: inhibitor at IC50) [mA/min] | Vmax(i) AChE ([4]; C: inhibitor at IC50) [A/min] | vmax AChE, individual experiments B1–B3 [4] | vmax AChE, individual experiments C1–C3 [4] | I: type of inhibition, AChE [4] | SI BuChE [3] | also measured |
| --- | --- | --- | --- | --- | --- | --- | --- | --- | --- | --- | --- | --- | --- | --- | --- | --- | --- | --- | --- | --- | --- |
| CCCCCCSNC(N)=NC(=N)N(C)C [Compound 1] | M (M: mixed type) | mixed-type inhibition; also recorded: mixed manner | 206.94 ± 15.02 | 0.207 ± 0.015 | 174.27 ± 11.70 | 0.174 ± 0.012 | 195.000 mA/min and 223.809 mA/min and 202.024 mA/min | 161.000 mA/min and 178.705 mA/min and 183.120 mA/min | 0.59 | 3170 ± 411 | 1880 ± 558 | non-competitive inhibition; also recorded: noncompetitively | 202.18 ± 7.39 | 0.202 ± 0.007 | 161.59 ± 24.42 | 0.161 ± 0.024 | 200.260 mA/min and 210.362 mA/min and 195.955 mA/min | 141.006 mA/min and 155.200 mA/min and 188.583 mA/min | – | – | – |
| CCCCC(CC)CSNC(N)=NC(=N)N(C)C (stereo not shown) [Compound 2] | M (M: mixed type) | mixed manner; also recorded: mixed-type | 182.27 ± 9.29 | 0.182 ± 0.009 | 103.11 ± 19.12 | 0.103 ± 0.019 | 192.871 mA/min and 178.466 mA/min and 175.485 mA/min | 115.727 mA/min and 81.110 mA/min and 112.514 mA/min | 0.09 | 3680 ± 693 | 335 ± 107 | mixed type | 218.43 ± 5.69 | 0.218 ± 0.005 | 160.75 ± 10.82 | 0.160 ± 0.011 | 225.000 mA/min and 215.564 mA/min and 214.749 mA/min | 153.011 mA/min and 156.143 mA/min and 173.124 mA/min | M (M: mixed type) | – | – |
| CN(C)C(=N)N=C(N)NS(=O)(=O)c1ccc([N+](=O)[O-])cc1 [Compound 3] | M (M: mixed type) | mixed manner | 207.61 ± 5.30 | 0.208 ± 0.005 | 180.05 ± 19.37 | 0.180 ± 0.019 | 207.848 mA/min and 202.204 mA/min and 212.802 mA/min | 166.268 mA/min and 171.680 mA/min and 202.204 mA/min | 0.15 | 3820 ± 278 | 561 ± 192 | mixed inhibition; also recorded: mixed way | 147.43 ± 22.32 | 0.147 ± 0.022 | 112.29 ± 24.418 | 0.112 ± 0.024 | 173.106 mA/min and 136.619 mA/min and 132.580 mA/min | 136.281 mA/min and 87.466 mA/min and 113.130 mA/min | M (M: mixed type) | 6.82 | – |
| CN(C)C(=N)N=C(N)NS(=O)(=O)c1ccccc1[N+](=O)[O-] [Compound 4] | – | non-competitively | 229.87 ± 19.38 | 0.229 ± 0.019 | 174.32 ± 5.91 | 0.174 ± 0.006 | 229.000 mA/min and 249.675 mA/min and 210.944 mA/min | 174.000 mA/min and 180.395 mA/min and 168.586 mA/min | 0.30 | 2860 ± 283 | 871 ± 227 | mixed inhibition | 162.74 ± 5.00 | 0.163 ± 0.005 | 118.77 ± 19.443 | 0.119 ± 0.019 | 161.000 mA/min and 168.393 mA/min and 158.846 mA/min | 110.000 mA/min and 141.058 mA/min and 105.263 mA/min | M (M: mixed type) | 3.28 | – |
| CN(C)C(=N)N=C(N)N [Metformin, metformin, reference compound] | – | – | – | – | – | – | – | – | – | – | – | – | – | – | – | – | – | – | – | – | BuChE inhibition (BuChE [5]): up to 21.2%; effect on BuChE activity (words) (BuChE [6]): did not reveal anti-BuChE activity; effect on BuChE activity (words) (BuChE [6]; listed as metformin): not to affect the enzyme activity; inhibition at 3000 µM (BuChE [6]; metformin at 3 mmol/L): 1.1 ± 0.51%; type of AChE inhibition [7]: mixed inhibition; type of AChE inhibition (AChE; at 1/2 IC50 for AChE): mixed-type; Vmax AChE (AChE; each at 1/2 IC50 for AChE: metformin 1175, donepezil 0.0125, compound 5 106.0 µmol/L, alone or in mixture): 0.179 ± 0.020 A/min; inhibition at 600 µM (Aβ42 peptide; 600 µmol/L, read-out: maximal inhibition of Aβ aggregation): 11.3%; effect on Aβ fibrillation vs positive control (Aβ42 peptide; both tested concentrations, 5–90 min): did not significantly affect; also recorded: not to significantly affect |
